The supplement of paper PMC10307832

Key:
Assay in all cases: relative viability (nuclei count vs DMSO), 5 days (fraction); higher = more cells survive
[1] = compound: CC1CC(=O)N(C2=CN=C(N=C2N1C3CCCC3)NC4=C(C=C(C=C4)C(=O)NC5CCN(CC5)C)OC)C [NPK76-II-72-1] + COc1cc2c(Oc3ccc(NC(=O)C4(C(=O)Nc5ccc(F)cc5)CC4)cc3F)ccnc2cc1OCCCN1CCOCC1 [Foretinib] (partner 0.25 µM)
Outline: (§1)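 The day after seeding in 1536-well plates, lung cancer cell lines were treated by pin tool with a single drug, or with a fixed anchor-drug dose together with five library-drug doses (not always all listed) in √10 steps. After 5 days, a combined fix-and-stain solution (final 0.05% Triton X-100, 1% formaldehyde, 1 ug/ml Hoechst) was added. Nuclei counted on 4× images gave relative viability as treated counts over vehicle counts, reported as the median of duplicate plates.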

[2] = compound: CC[C@@H]1C(=O)N(C)c2cnc(Nc3ccc(C(=O)NC4CCN(C)CC4)cc3OC)nc2N1C1CCCC1 [BI-2536] + Nc1nc2[nH]cc(CCc3ccc(C(=O)N[C@@H](CCC(=O)O)C(=O)O)cc3)c2c(=O)[nH]1 [Pemetrexed] (partner 0.2 µM)
Outline: as §1

[3] = compound: CC[C@@H]1C(=O)N(C)c2cnc(Nc3ccc(C(=O)NC4CCN(C)CC4)cc3OC)nc2N1C1CCCC1 [BI-2536] + COc1cccc2cc(-c3nc([C@H]4CC[C@H](C(=O)O)CC4)n4ncnc(N)c34)[nH]c12 [OSI-027] (partner 0.5 µM)
Outline: as §1

[4] = compound: CC[C@@H]1C(=O)N(C)c2cnc(Nc3ccc(C(=O)NC4CCN(C)CC4)cc3OC)nc2N1C1CCCC1 [BI-2536] + CS(=O)(=O)CCNCc1ccc(-c2ccc3ncnc(Nc4ccc(OCc5cccc(F)c5)c(Cl)c4)c3c2)o1 [Lapatinib] (partner 2 µM)
Outline: as §1

## LU99A
[1]; first compound 0.01 µM
  relative viability: 0.774
[1]; first compound 0.03162 µM
  relative viability: 0.765
[1]; first compound 0.1 µM
  relative viability: 0.936
[1]; first compound 0.3162 µM
  relative viability: 0.503
[1]; first compound 1 µM
  relative viability: 0.979
[2]; first compound 0.01 µM
  relative viability: 0.225
[2]; first compound 0.03162 µM
  relative viability: 0.193
[2]; first compound 0.1 µM
  relative viability: 0.165
[2]; first compound 0.3162 µM
  relative viability: 0.152
[2]; first compound 1 µM
  relative viability: 0.143
[3]; first compound 0.01 µM
  relative viability: 0.281
[3]; first compound 0.03162 µM
  relative viability: 0.28
[3]; first compound 0.1 µM
  relative viability: 0.181
[3]; first compound 0.3162 µM
  relative viability: 0.161
[3]; first compound 1 µM
  relative viability: 0.17
[4]; first compound 0.01 µM
  relative viability: 0.889
[4]; first compound 0.03162 µM
  relative viability: 1.07
[4]; first compound 0.1 µM
  relative viability: 0.193
[4]; first compound 0.3162 µM
  relative viability: 0.202
[4]; first compound 1 µM
  relative viability: 0.211

## LXF-289
[1]; first compound 0.01 µM
  relative viability: 0.945
[1]; first compound 0.03162 µM
  relative viability: 1.03
[1]; first compound 0.1 µM
  relative viability: 0.896
[1]; first compound 0.3162 µM
  relative viability: 0.948
[1]; first compound 1 µM
  relative viability: 0.961
[2]; first compound 0.01 µM
  relative viability: 0.932
[2]; first compound 0.03162 µM
  relative viability: 0.812
[2]; first compound 0.1 µM
  relative viability: 0.503
[2]; first compound 0.3162 µM
  relative viability: 0.0709
[2]; first compound 1 µM
  relative viability: 0.0711
[3]; first compound 0.01 µM
  relative viability: 0.844
[3]; first compound 0.03162 µM
  relative viability: 0.687
[3]; first compound 0.1 µM
  relative viability: 0.181
[3]; first compound 0.3162 µM
  relative viability: 0.0418
[3]; first compound 1 µM
  relative viability: 0.0509
[4]; first compound 0.01 µM
  relative viability: 0.889
[4]; first compound 0.03162 µM
  relative viability: 0.839
[4]; first compound 0.1 µM
  relative viability: 0.443
[4]; first compound 0.3162 µM
  relative viability: 0.0583
[4]; first compound 1 µM
  relative viability: 0.0798

## NCI-H23
[1]; first compound 0.01 µM
  relative viability: 0.955
[1]; first compound 0.03162 µM
  relative viability: 0.88
[1]; first compound 0.1 µM
  relative viability: 0.954
[1]; first compound 0.3162 µM
  relative viability: 0.99
[1]; first compound 1 µM
  relative viability: 0.973
[2]; first compound 0.01 µM
  relative viability: 0.619
[2]; first compound 0.03162 µM
  relative viability: 0.756
[2]; first compound 0.1 µM
  relative viability: 0.201
[2]; first compound 0.3162 µM
  relative viability: 0.128
[2]; first compound 1 µM
  relative viability: 0.182
[3]; first compound 0.01 µM
  relative viability: 0.551
[3]; first compound 0.03162 µM
  relative viability: 0.508
[3]; first compound 0.1 µM
  relative viability: 0.16
[3]; first compound 0.3162 µM
  relative viability: 0.107
[3]; first compound 1 µM
  relative viability: 0.107
[4]; first compound 0.01 µM
  relative viability: 1.07
[4]; first compound 0.03162 µM
  relative viability: 0.773
[4]; first compound 0.1 µM
  relative viability: 0.168
[4]; first compound 0.3162 µM
  relative viability: 0.171
[4]; first compound 1 µM
  relative viability: 0.147

## NCI-H322M
[1]; first compound 0.01 µM
  relative viability: 1.06
[1]; first compound 0.03162 µM
  relative viability: 1.09
[1]; first compound 0.1 µM
  relative viability: 0.976
[1]; first compound 0.3162 µM
  relative viability: 0.923
[1]; first compound 1 µM
  relative viability: 0.978
[2]; first compound 0.01 µM
  relative viability: 0.607
[2]; first compound 0.03162 µM
  relative viability: 0.542
[2]; first compound 0.1 µM
  relative viability: 0.639
[2]; first compound 0.3162 µM
  relative viability: 0.454
[2]; first compound 1 µM
  relative viability: 0.363
[3]; first compound 0.01 µM
  relative viability: 0.52
[3]; first compound 0.03162 µM
  relative viability: 0.52
[3]; first compound 0.1 µM
  relative viability: 0.37
[3]; first compound 0.3162 µM
  relative viability: 0.411
[3]; first compound 1 µM
  relative viability: 0.305
[4]; first compound 0.01 µM
  relative viability: 0.545
[4]; first compound 0.03162 µM
  relative viability: 0.483
[4]; first compound 0.1 µM
  relative viability: 0.59
[4]; first compound 0.3162 µM
  relative viability: 0.673
[4]; first compound 1 µM
  relative viability: 0.251

## NCI-H358
[1]; first compound 0.01 µM
  relative viability: 0.575
[1]; first compound 0.03162 µM
  relative viability: 0.695
[1]; first compound 0.1 µM
  relative viability: 0.915
[1]; first compound 1 µM
  relative viability: 0.769
[2]; first compound 0.01 µM
  relative viability: 0.191
[2]; first compound 0.03162 µM
  relative viability: 0.178
[2]; first compound 0.1 µM
  relative viability: 0.194
[2]; first compound 0.3162 µM
  relative viability: 0.0986
[2]; first compound 1 µM
  relative viability: 0.102
[3]; first compound 0.01 µM
  relative viability: 0.758
[3]; first compound 0.03162 µM
  relative viability: 0.477
[3]; first compound 0.1 µM
  relative viability: 0.0848
[3]; first compound 0.3162 µM
  relative viability: 0.0717
[3]; first compound 1 µM
  relative viability: 0.0809
[4]; first compound 0.01 µM
  relative viability: 0.454
[4]; first compound 0.03162 µM
  relative viability: 0.312
[4]; first compound 0.1 µM
  relative viability: 0.174
[4]; first compound 0.3162 µM
  relative viability: 0.161
[4]; first compound 1 µM
  relative viability: 0.182

## NCI-H460
[1]; first compound 0.01 µM
  relative viability: 0.931
[1]; first compound 0.03162 µM
  relative viability: 1.02
[1]; first compound 0.1 µM
  relative viability: 0.996
[1]; first compound 0.3162 µM
  relative viability: 1.01
[1]; first compound 1 µM
  relative viability: 1.02
[2]; first compound 0.01 µM
  relative viability: 0.0637
[2]; first compound 0.03162 µM
  relative viability: 0.0517
[2]; first compound 0.1 µM
  relative viability: 0.0606
[2]; first compound 0.3162 µM
  relative viability: 0.0204
[2]; first compound 1 µM
  relative viability: 0.0163
[3]; first compound 0.01 µM
  relative viability: 0.676
[3]; first compound 0.03162 µM
  relative viability: 0.327
[3]; first compound 0.1 µM
  relative viability: 0.247
[3]; first compound 0.3162 µM
  relative viability: 0.0156
[3]; first compound 1 µM
  relative viability: 0.0121
[4]; first compound 0.01 µM
  relative viability: 1.04
[4]; first compound 0.03162 µM
  relative viability: 0.257
[4]; first compound 0.1 µM
  relative viability: 0.206
[4]; first compound 0.3162 µM
  relative viability: 0.0105
[4]; first compound 1 µM
  relative viability: 0.011

## NCI-H520
[1]; first compound 0.01 µM
  relative viability: 0.648
[1]; first compound 0.03162 µM
  relative viability: 0.854
[1]; first compound 0.1 µM
  relative viability: 0.674
[1]; first compound 0.3162 µM
  relative viability: 0.867
[1]; first compound 1 µM
  relative viability: 0.794
[2]; first compound 0.01 µM
  relative viability: 0.666
[2]; first compound 0.03162 µM
  relative viability: 0.32
[2]; first compound 0.1 µM
  relative viability: 0.204
[2]; first compound 0.3162 µM
  relative viability: 0.179
[2]; first compound 1 µM
  relative viability: 0.189
[3]; first compound 0.01 µM
  relative viability: 0.277
[3]; first compound 0.03162 µM
  relative viability: 0.289
[3]; first compound 0.1 µM
  relative viability: 0.195
[3]; first compound 0.3162 µM
  relative viability: 0.292
[3]; first compound 1 µM
  relative viability: 0.2
[4]; first compound 0.01 µM
  relative viability: 0.686
[4]; first compound 0.03162 µM
  relative viability: 0.471
[4]; first compound 0.1 µM
  relative viability: 0.154
[4]; first compound 0.3162 µM
  relative viability: 0.193
[4]; first compound 1 µM
  relative viability: 0.164

## NCI-H596
[1]; first compound 0.01 µM
  relative viability: 0.907
[1]; first compound 0.03162 µM
  relative viability: 1.01
[1]; first compound 0.1 µM
  relative viability: 0.824
[1]; first compound 0.3162 µM
  relative viability: 0.819
[1]; first compound 1 µM
  relative viability: 0.842
[2]; first compound 0.01 µM
  relative viability: 0.528
[2]; first compound 0.03162 µM
  relative viability: 0.491
[2]; first compound 0.1 µM
  relative viability: 0.487
[2]; first compound 0.3162 µM
  relative viability: 0.277
[2]; first compound 1 µM
  relative viability: 0.29
[3]; first compound 0.01 µM
  relative viability: 0.688
[3]; first compound 0.03162 µM
  relative viability: 0.825
[3]; first compound 0.1 µM
  relative viability: 0.51
[3]; first compound 0.3162 µM
  relative viability: 0.191
[3]; first compound 1 µM
  relative viability: 0.304
[4]; first compound 0.01 µM
  relative viability: 1.17
[4]; first compound 0.03162 µM
  relative viability: 1.05
[4]; first compound 0.1 µM
  relative viability: 0.571
[4]; first compound 0.3162 µM
  relative viability: 0.346
[4]; first compound 1 µM
  relative viability: 0.273
